Source: BigSolDB 2.1

Details: in water

O=C1NC(=O)c2cc([N+](=O)[O-])ccc21
Details	solubility (mole fraction)
278.15 K	0.000105
283.15 K	0.000142
288.15 K	0.000187
293.15 K	0.000248
298.15 K	0.000324
303.15 K	0.000415
308.15 K	0.000537
313.15 K	0.000684
318.15 K	0.00086
323.15 K	0.00109
